These results are taken from patent US20090028925A1, “Novel Phosphinic Acid-Containing Thyromimetics” (priority 2005, published 2009).

The AUC is concentration integrated over time. As usually defined, the Cmax is the maximum level reached in the sampled fluid or tissue. By Tmax is commonly meant the time from dosing to the highest level. What is called Ki is the equilibrium dissociation constant of an inhibitor or competing ligand from its target.

A short description of series [1]: Tissue distribution and pharmacokinetics following IP administration to normal rats. It is filed as in vivo, SD rats. The note with it: 10 mg/kg IP. An excerpt: At pre-selected time points following dosing, the rats were anesthetized using iso-fluorane and the peritoneal cavity was then opened and a blood sample was obtained from the abdominal vena cava. In addition, liver, kidney, and heart were excised and immersed in 3 volumes of cold 60% acetonitrile. The blood samples were briefly centrifuged and the plasma fraction was then extracted with 1.5 volumes of methanol, processed, and analyzed by LC-UV as described in Example G. The frozen liver, kidney, and heart tissue were homogenized in 60% v/v acetonitrile, centrifuged, and then analyzed by LC-UV. Pharmacokinetic parameters and AUC of the plasma and tissue concentration-time profiles were determined noncompartmentally by WinNonLin.

Series [2] deals with T1, human thyroid hormone receptors TRα1 (Homo sapiens, UniProt P10827).
T1 construct: made in house; host or cells: Sf9 insect cells (baculovirus)
T1 sequence (P10827 1-410 isoform P10827-2): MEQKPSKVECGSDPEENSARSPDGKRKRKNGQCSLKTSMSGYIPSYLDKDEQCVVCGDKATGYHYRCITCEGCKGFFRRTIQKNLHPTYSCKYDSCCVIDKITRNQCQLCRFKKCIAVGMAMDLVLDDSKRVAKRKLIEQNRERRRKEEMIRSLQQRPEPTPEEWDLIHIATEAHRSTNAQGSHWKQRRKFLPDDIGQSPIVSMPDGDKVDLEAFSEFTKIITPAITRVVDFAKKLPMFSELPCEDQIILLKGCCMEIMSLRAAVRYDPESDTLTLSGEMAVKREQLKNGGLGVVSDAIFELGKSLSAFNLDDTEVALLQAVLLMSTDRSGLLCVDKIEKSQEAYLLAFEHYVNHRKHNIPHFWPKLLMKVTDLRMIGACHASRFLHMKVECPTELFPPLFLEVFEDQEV
T1 sequence (P19793 1-462 partner): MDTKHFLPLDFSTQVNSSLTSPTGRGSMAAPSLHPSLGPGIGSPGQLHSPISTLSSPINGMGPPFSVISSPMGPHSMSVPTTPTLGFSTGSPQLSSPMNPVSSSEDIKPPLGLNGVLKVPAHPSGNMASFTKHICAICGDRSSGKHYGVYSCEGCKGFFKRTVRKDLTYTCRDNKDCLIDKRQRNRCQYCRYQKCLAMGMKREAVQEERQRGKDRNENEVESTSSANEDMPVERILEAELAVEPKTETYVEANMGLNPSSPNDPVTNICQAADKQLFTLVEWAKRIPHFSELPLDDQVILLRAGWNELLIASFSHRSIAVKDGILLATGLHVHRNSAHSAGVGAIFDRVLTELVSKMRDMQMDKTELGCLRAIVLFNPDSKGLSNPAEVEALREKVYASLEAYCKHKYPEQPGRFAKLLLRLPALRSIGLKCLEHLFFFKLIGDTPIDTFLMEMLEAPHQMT
Briefly: Receptor binding to TRα1 (gel filtration and scintillation proximity assay, labeled T3). Conditions: SPA data; read-out: Ki TRα. A general note: SEC sorts molecules by how far they enter the pores of the column.

Series [3] is described as follows: Liver distribution following oral administration. It is filed as in vivo. Conditions: liver levels of Compound 7, normal rats, oral 10 mg/kg. The procedure: Liver levels of Compound 7 were assessed in normal rats following oral administration of the HepDirect™ or other prodrugs. The levels were used to estimate potential efficacy. Liver levels were assessed by LC-MS using the 363.3/63.0 peak area to estimate levels of Compound 7 generated by orally administered prodrugs.

Series [4] has as its system liver triglycerides. Briefly: Hepatic triglyceride content in normal rats, chronic infusion. It is filed as in vivo. Conditions: normal rats chronically infused for 7 days. The method, then:
(§1) Normal rats were chronically infused with Compound 7 for 7 days. Liver triglycerides were analyzed following lipid extraction by the Bligh Dyer method (Bligh E G and Dyer W J, A rapid method of total lipid extraction and purification. Can J Med. Sci. 1959 (August); 37(8):911-7, incorporated herein by reference). Total triglycerides were analyzed in the liver extracts by an enzymatic assay (Thermo Electron Corporation). Total lipid was normalized to initial liver weight and triglyceride content was normalized to liver weight. […] There was a 4% reduction in liver triglycerides for this group and the results were not statistically significant.

The subject of series [5] is liver triglycerides. The series can be described thus: Hepatic triglyceride content and steatosis in ZDF rats, oral. It is filed as in vivo. The note with it: orally 28 days. The method, then: as §1
In other experiments, Compound 7 was orally administered to ZDF rats for 28 days. Liver triglycerides were analyzed as described above. Total liver triglycerides were reduced in the treated animals 42% in the 2.5 mg/kg/d group. […] The hepatic steatosis is a well known and described phenomenon for the ZDF rat, and therefore not attributable to vehicle treatment.

The nature of series [6]: Continuous infusion study in rats on a cholesterol-containing diet. It is filed as in vivo. The note with it: continuous infusion 1 mg/kg/day.
Experimental: Screening for thyromimetic activity was performed in normal rats maintained on a cholesterol-containing diet. Compounds were administered by continuous infusion using an osmotic pump at 1 mg/kg/day.

As for `Cc1cc(OCP(=O)(O)O)cc(C)c1Cc1ccc(O)c(C(C)C)c1` [Compound 7, [3,5-dimethyl-4-(4′-hydroxy-3′-iso-propylbenzyl)phenoxy]methylphosphonic acid], in series [1], the “Heart AUC” value was found to be 32.8 nmol·h/g, the “Kidney AUC” value is 5.0 nmol·h/g and the “Liver AUC” value turned out to be 301.7 nmol·h/g. Also, in series [1] (male, SD, rat, plasma), the AUC was 31.6 µg·h/mL, the Cmax was 26 µg/mL and the Tmax came to 20 min. Moreover, in series [1] (male, SD, rat, plasma, read-out: Cl(observed)/F (converted)), the CL/F is 0.301 L/h/kg. In addition, the Vd/F in series [1] (male, SD, rat, plasma, read-out: Vz(observed)/F) came out at 0.401 L/kg. In series [1] (plasma), this compound registered an AUMClast of 33.7098 μg * hr^2/mL and a Tlast of 4 h. Also, the Ki in series [2] was found to be 0.058 µM. Further, the “Liver Levels (ug/g) (10 mg/kg@1.5 h)” value in series [3] is “Not Detected”. Moreover, the “reduction in liver triglycerides” value in the series with liver triglycerides [4] is given as 64%. For the same compound, the “microvesicular steatosis, histologic analysis of liver sections” value with liver triglycerides [5] is “dose dependent reduction in the microvesicular steatosis”. Also, in series [6] (day 7 and day 14), the cholesterol lowering effects entry is “demonstrated cholesterol lowering effects”. Moreover, in series [6] (day 7 or day 14), the “cardiovascular parameters (heart rate, LV dP/dt, systolic and diastolic blood pressure)” value is reported as “no changes in any of the cardiovascular parameters”.
